# Test results reported in ChEMBL document CHEMBL3045667, “Design, synthesis, and anticonvulsant activity of novel quinazolinone analogues” (Med Chem Res, 2011).
# What was measured:
# [1] = Lipophilicity, log P of the compound; type: physicochemical; conditions: octanol/water
# [2] = system: Mus musculus; assay: Anticonvulsant activity in Mus musculus (mouse) assessed as protection against pentylenetetrazole-induced seizures at 150 mg/kg, ip administered 1 hr before pentylenetetrazole challenge measured after 30 min; type: functional; conditions: route intraperitoneal
# [3] = system: Mus musculus; assay: Anticonvulsant activity in Mus musculus (mouse) assessed as protection against pentylenetetrazole-induced seizures at 100 mg/kg, ip administered 1 hr before pentylenetetrazole challenge measured after 30 min; type: functional; conditions: route intraperitoneal
# [4] = system: Mus musculus; assay: Anticonvulsant activity in Mus musculus (mouse) assessed as protection against pentylenetetrazole-induced seizures at 50 mg/kg, ip administered 1 hr before pentylenetetrazole challenge measured after 30 min; type: functional; conditions: route intraperitoneal
# [5] = system: Mus musculus; assay: Anticonvulsant activity in ip dosed Mus musculus (mouse) assessed as protection against pentylenetetrazole-induced seizures administered 1 hr before pentylenetetrazole challenge measured after 30 min; type: functional; conditions: read-out: PD50
# [6] = system: Mus musculus; assay: Anticonvulsant activity in Mus musculus (mouse) assessed as protection against pentylenetetrazole-induced seizures at 20 mg/kg, ip administered 1 hr before pentylenetetrazole challenge measured after 30 min; type: functional; conditions: route intraperitoneal
# [7] = system: Mus musculus; assay: Anticonvulsant activity in Mus musculus (mouse) assessed as protection against pentylenetetrazole-induced seizures at 15 mg/kg, ip administered 1 hr before pentylenetetrazole challenge measured after 30 min; type: functional; conditions: route intraperitoneal
# [8] = system: Mus musculus; assay: Anticonvulsant activity in Mus musculus (mouse) assessed as protection against pentylenetetrazole-induced seizures at 10 mg/kg, ip administered 1 hr before pentylenetetrazole challenge measured after 30 min; type: functional; conditions: route intraperitoneal
SMILES,logP [1],Activity [2],Activity [3],Activity [4],ED50 [5],Activity [6],Activity [7],Activity [8]
O=C1NN=C(c2ccccc2)C(c2ccccc2)C1Sc1nc2ccccc2c(=O)n1-c1ccccc1 (stereo unspecified),6.4,87.5%,62.5%,37.5%,68 mg/kg,–,–,–
O=C(CSc1nc2ccccc2c(=O)n1-c1ccccc1)c1ccc(Cl)cc1,5.5,87.5%,62.5%,25%,80 mg/kg,–,–,–
CCC1(c2ccccc2)C(=O)NC(=O)NC1=O [PHENOBARBITAL],1.36,–,–,–,16 mg/kg,62.5%,50%,37.5%
N#Cc1cnn(-c2nc3ccccc3c(=O)n2-c2ccccc2)c1N,3.01,87.5%,50%,25%,90 mg/kg,–,–,–
COc1ccc(/C=N/Nc2nc3ccccc3c(=O)n2-c2ccccc2)cc1OC,4.72,87.5%,62.5%,25%,83 mg/kg,–,–,–
O=C(CSc1nc2ccccc2c(=O)n1-c1ccccc1)c1ccc(Br)cc1,5.77,100%,50%,37.5%,78 mg/kg,–,–,–
O=c1c2ccccc2nc(N/N=C/c2ccc(Cl)cc2)n1-c1ccccc1,5.53,100%,100%,50%,50 mg/kg,–,–,–
COc1ccc(-c2nnc3n(-c4ccccc4)c(=O)c4ccccc4n23)cc1OC,4.44,50%,37.5%,12.5%,160 mg/kg,–,–,–
CCn1c(SCC(=O)c2ccc(Br)cc2)nc2ccccc2c1=O,4.45,87.5%,50%,37.5%,86 mg/kg,–,–,–
CN1C(=O)CN=C(c2ccccc2)c2cc(Cl)ccc21 [DIAZEPAM],–,–,–,–,2 mg/kg,–,–,–
COc1ccc(C(=O)CSc2nc3ccccc3c(=O)n2-c2ccccc2)cc1,4.82,87.5%,50%,37.5%,85 mg/kg,–,–,–
O=C1C=C(Sc2nc3ccccc3c(=O)n2-c2ccccc2)C(=O)N=N1,2.13,100%,62.5%,37.5%,66 mg/kg,–,–,–
O=c1c2ccccc2n2c(-c3ccc(Cl)cc3)nnc2n1-c1ccccc1,5.25,100%,62.5%,37.5%,64 mg/kg,–,–,–
